Values after ≈ are worked out from the molar mass of the structure shown.
Columns and labels:
Mycoplasma gallisepticum = experiment: Effect of oral administration on chicken inoculated with Mycoplasma gallisepticum; type: in vivo; conditions: for Chickens developing disease in air sac (naked eye observation) / No. of dead chickens: 5 tested chickens
Method: Mycoplasma gallisepticum cells collected from chickens having respiratory Mycoplasma infection were cultured for 3 days in a Frey liquid media for Mycoplasma. 0.2 ml of this culture broth was injected into the trachea of chickens of an average body weight of 80 g using a 1 ml disposable injection needle. Beginning from the next day following the inoculation, feeds to which Compound (1) had been added in the amount of 100 ppm, 75 ppm, or 50 ppm were freely given to the chickens for 5 days. Following the administration of Compound (1) the chickens were given feed containing no drug for a further 5 days. The surviving chickens were sacrificed and dissected. After examination of the degree of disease in the air sac, Mycoplasma gallisepticum in the infraorbital sinus, trachea, lung, and air sac were determined. […] TABLE 6 […]

[1] = system: Staphylococcus aureus Yamaguchi 6; experiment: in vitro antimicrobial activity (MIC), agar dilution, Part 2; type: cell-based; conditions: Staphylococcus aureus Yamaguchi 6, Chicken; read-out: MIC
Method: (§1) Test microorganisms listed in Table 2 were cultured overnight in heart infusion nutrient broth (produced by Eiken Chemical Co., Ltd.). Culture broth containing about 10⁸/ml cells was diluted to a volume of 100 times. An aliquot (about 0.05 ml) of the diluted broth was inoculated onto a Mueller Hinton agar plate (produced by Eiken Chemical Co., Ltd.) to which Compound No. 1 was added in a prescribed concentration. […]
(§2) MIC of Compounds (1)-(8) against various pathogenic bacteria derived from animals was determined in the same manner as in Example 1.

Escherichia coli 139 = experiment: as above; type: cell-based; conditions: Escherichia coli 139, Cow; read-out: MIC
Method: as §1, §2

[2] = system: Salmonella typhimurium 569; experiment: as above; type: cell-based; conditions: Salmonella enterica, TYPHIMURIUM, Salmonella typhimurium 569, Pig; read-out: MIC
Method: as §1, §2

[3] = system: Salmonella typhimurium 103; experiment: as above; type: cell-based; conditions: Salmonella enterica; Salmonella typhimurium 103, Chicken; read-out: MIC
Method: as §1, §2

[4] = system: Pasteurella multocida DB-12-1; experiment: as above; type: cell-based; conditions: DB121; Pasteurella multocida DB-12-1, Pig; read-out: MIC
Method: as §1, §2

Escherichia coli 881 = experiment: as above; type: cell-based; conditions: Escherichia coli, 881, Escherichia coli 881, Pig; read-out: MIC
Method: as §1, §2

[5] = system: Bordetella bronchiaseptica OKM-1; experiment: as above; type: cell-based; conditions: Bordetella, OKM1, Bordetella bronchiaseptica OKM-1, Pig; read-out: MIC
Method: as §1, §2

Escherichia coli S6W = experiment: as above; type: cell-based; conditions: Escherichia coli, S6W, Escherichia coli S6W, Chicken; read-out: MIC
Method: as §1, §2

[6] = system: Mycoplasma gallisepticum Strain T-2; experiment: in vitro antimicrobial activity (MIC) in Frey liquid medium; type: cell-based; conditions: Mycoplasmoides gallisepticum; Mycoplasma gallisepticum Strain T-2, from chicken; Frey liquid medium, 37°C, 3-5 days; read-out: MIC
Method: (§3) Various test strains of Mycoplasma gallisepticum derived from chicken were cultured in a Frey liquid medium for Mycoplasma for 3 days. The culture broth containing about 10⁸/ml cells was diluted to a volume of 100 times. The diluted broth was inoculated into Frey liquid media for Mycoplasma to which the compounds of this invention were added at prescribed concentrations. The cells were incubated at 37°C for 3-5 days while daily observing the color of the media. Among the culture broths maintaining yellow color at the time when the control to which no test compound was added turned red, the concentration of the broth having the minimum concentration was taken as the MIC of the compound.

[7] = system: Mycoplasma gallisepticum Strain 2004; experiment: as above; type: cell-based; conditions: Mycoplasmoides gallisepticum, STRAIN2004; Mycoplasma gallisepticum Strain 2004, from chicken; Frey liquid medium, 37°C, 3-5 days; read-out: MIC
Method: as §3

[8] = system: Mycoplasma gallisepticum Strain DP-1047; experiment: as above; type: cell-based; conditions: Mycoplasmoides gallisepticum; Mycoplasma gallisepticum Strain DP-1047, from chicken; Frey liquid medium, 37°C, 3-5 days; read-out: MIC
Method: as §3

[9] = system: Mycoplasma gallisepticum Strain T-7; experiment: as above; type: cell-based; conditions: Mycoplasmoides gallisepticum, Mycoplasma gallisepticum Strain T-7, from chicken, 37°C, 3-5 days
Method: as §3

[10] = system: Mycoplasma gallisepticum Strain 2012; experiment: as above; type: cell-based; conditions: Mycoplasmoides gallisepticum, STRAIN2012; Mycoplasma gallisepticum Strain 2012, from chicken; Frey liquid medium, 37°C, 3-5 days; read-out: MIC
Method: as §3

[11] = Acute toxicity test, intravenous injection; type: in vivo
Method: Representative test compounds, Compounds (2) and (3), were intravenously injected to mice. No fatality occurred at a dose of 200 mg/kg (10 mice/group), for Compound (2), and a dose of 200 mg/kg (6 mice/group), for Compound (3). From the results, the LD₅₀ values of the compounds are considered to be greater than 200 mg/kg.

With `CCCN1CCN(c2c(F)cc3c(=O)c(C(=O)O)cn4c3c2OCC4C)CC1` (racemic) [Compound (3), 3(RS)-9-fluoro-2,3-dihydro-3-methyl-10-(4-n-propyl-1-piperazinyl)-7-oxo-7H-pyrido[1,2,3-de] [1,4]benzoxazine-6-carboxylic acid] the “Mycoplasma gallisepticum collected in Air sac” value (Mycoplasma gallisepticum; 50 ppm in feed for 5 days) was 3.24 Logarithmic number of collected cells per 1 g of tissue, the “Mycoplasma gallisepticum collected in Infraorbital sinus” value (Mycoplasma gallisepticum; 50 ppm in feed for 5 days) was 0/5 and the “Mycoplasma gallisepticum collected in Lung” value (Mycoplasma gallisepticum; 50 ppm in feed for 5 days) was 2.38 Logarithmic number of collected cells per 1 g of tissue. The “Mycoplasma gallisepticum collected in Trachea” value (Mycoplasma gallisepticum; 50 ppm in feed for 5 days) was 0 Logarithmic number of collected cells per 1 g of tissue, the “Chickens developing disease in air sac (naked eye observation)” value (“Chickens developing disease in air sac” for short) (Mycoplasma gallisepticum; 50 ppm in feed for 5 days) was 0 and the “No. of dead chickens” value (Mycoplasma gallisepticum; 50 ppm in feed for 5 days) was 0. The “Mycoplasma gallisepticum collected in Air sac” value (Mycoplasma gallisepticum; 75 ppm in feed for 5 days) was 0 Logarithmic number of collected cells per 1 g of tissue, the “Mycoplasma gallisepticum collected in Infraorbital sinus” value (Mycoplasma gallisepticum; 75 ppm in feed for 5 days) was 0/5 and the “Mycoplasma gallisepticum collected in Lung” value (Mycoplasma gallisepticum; 75 ppm in feed for 5 days) was 0 Logarithmic number of collected cells per 1 g of tissue. The “Mycoplasma gallisepticum collected in Trachea” value (Mycoplasma gallisepticum; 75 ppm in feed for 5 days) was 0 Logarithmic number of collected cells per 1 g of tissue, the “Chickens developing disease in air sac” value (Mycoplasma gallisepticum; 75 ppm in feed for 5 days) was 0 and the “No. of dead chickens” value (Mycoplasma gallisepticum; 75 ppm in feed for 5 days) was 0. The “Mycoplasma gallisepticum collected in Air sac” value (Mycoplasma gallisepticum; 100 ppm in feed for 5 days) was 0 Logarithmic number of collected cells per 1 g of tissue, the “Mycoplasma gallisepticum collected in Infraorbital sinus” value (Mycoplasma gallisepticum; 100 ppm in feed for 5 days) was 0/5 and the “Mycoplasma gallisepticum collected in Lung” value (Mycoplasma gallisepticum; 100 ppm in feed for 5 days) was 0 Logarithmic number of collected cells per 1 g of tissue. For the same molecule, the “Mycoplasma gallisepticum collected in Trachea” value (Mycoplasma gallisepticum; 100 ppm in feed for 5 days) was 0 Logarithmic number of collected cells per 1 g of tissue, the “Chickens developing disease in air sac” value (Mycoplasma gallisepticum; 100 ppm in feed for 5 days) was 0 and the “No. of dead chickens” value (Mycoplasma gallisepticum; 100 ppm in feed for 5 days) was 0. The MIC [1] was 0.78 µg/mL (≈ 2 µM), the MIC (Escherichia coli 139) was 0.39 µg/mL (≈ 1 µM) and the MIC [2] was 0.39 µg/mL (≈ 1 µM). For the same molecule, the MIC [3] was 0.78 µg/mL (≈ 2 µM), the MIC [4] was 0.1 µg/mL (≈ 0.257 µM) and the MIC (Escherichia coli 881) was 0.2 µg/mL (≈ 0.514 µM). It also gave an MIC [5] of 0.78 µg/mL (≈ 2 µM), an MIC (Escherichia coli S6W) of 0.39 µg/mL (≈ 1 µM) and an MIC [6] of 0.2 µg/mL (≈ 0.514 µM). For the same molecule, the MIC [7] was 0.025 µg/mL (≈ 0.0642 µM), the MIC [8] was 0.2 µg/mL (≈ 0.514 µM) and the MIC [9] was 0.39 µg/mL (≈ 1 µM). For the same molecule, the MIC [10] was 0.05 µg/mL (≈ 0.128 µM), the fatality ([11]; mice, intravenously injected, dose of 200 mg/kg) was “No fatality” and the LD50 ([11]; mouse, in vivo, iv) was over 200 mg/kg.

From patent EP0354453A2, “Antimicrobial agent for animals” (priority 1988, dated 1990)
